What is called AC50 is the concentration at which the activity in the assay is half-maximal. In general, EC50 refers to the concentration at which the effect is half-maximal.

Data on one compound can be found in ChEMBL document CHEMBL1201862, “PubChem BioAssay data set” (2004).

The structures appear in SMILES notation. The source made the active and inactive calls.

The target in assay [1] is Heat shock protein HSP 90-alpha (Homo sapiens, UniProt P07900). The class given is functional, organism-based.
For assay [2], the target named is Intestinal-type alkaline phosphatase (Mus musculus, UniProt P24822). As to the kind of experiment: PubChem AID 488785. The class given is functional.
Assay [3] addresses Small ubiquitin-related modifier 1 (Homo sapiens, UniProt P63165). As to the kind of experiment: SUMO1 protein interaction blockers, potency – biochemical, fluorescence polarization, uHTS hits, dose response (AID 624382). The format is functional. Particulars: read-out: IC50_Mean. A general note: Polarisation of emitted light reports the rotation of a fluorescent probe.
In assay [4] the target is 5-hydroxytryptamine receptor 5A (Homo sapiens, UniProt P47898). In words: Counterscreen for agonists of OPRM1-OPRD1 heterodimerization: luminescence-based cell-based high throughput dose response assay to identify agonists of 5-hydroxytryptamine (serotonin) 5A receptor (HTR5A). [Related pubchem assays (depositor defined):AID504326, AID504355, AID504692, AID504904, AID504905]. The class given is functional. (In general: A counterscreen serves to expose hits that act by an unwanted route or on another target.)

The target of assay [5] is T1, Insulin-degrading enzyme (Homo sapiens, UniProt P14735).
T1 sequence (P14735 whole entry): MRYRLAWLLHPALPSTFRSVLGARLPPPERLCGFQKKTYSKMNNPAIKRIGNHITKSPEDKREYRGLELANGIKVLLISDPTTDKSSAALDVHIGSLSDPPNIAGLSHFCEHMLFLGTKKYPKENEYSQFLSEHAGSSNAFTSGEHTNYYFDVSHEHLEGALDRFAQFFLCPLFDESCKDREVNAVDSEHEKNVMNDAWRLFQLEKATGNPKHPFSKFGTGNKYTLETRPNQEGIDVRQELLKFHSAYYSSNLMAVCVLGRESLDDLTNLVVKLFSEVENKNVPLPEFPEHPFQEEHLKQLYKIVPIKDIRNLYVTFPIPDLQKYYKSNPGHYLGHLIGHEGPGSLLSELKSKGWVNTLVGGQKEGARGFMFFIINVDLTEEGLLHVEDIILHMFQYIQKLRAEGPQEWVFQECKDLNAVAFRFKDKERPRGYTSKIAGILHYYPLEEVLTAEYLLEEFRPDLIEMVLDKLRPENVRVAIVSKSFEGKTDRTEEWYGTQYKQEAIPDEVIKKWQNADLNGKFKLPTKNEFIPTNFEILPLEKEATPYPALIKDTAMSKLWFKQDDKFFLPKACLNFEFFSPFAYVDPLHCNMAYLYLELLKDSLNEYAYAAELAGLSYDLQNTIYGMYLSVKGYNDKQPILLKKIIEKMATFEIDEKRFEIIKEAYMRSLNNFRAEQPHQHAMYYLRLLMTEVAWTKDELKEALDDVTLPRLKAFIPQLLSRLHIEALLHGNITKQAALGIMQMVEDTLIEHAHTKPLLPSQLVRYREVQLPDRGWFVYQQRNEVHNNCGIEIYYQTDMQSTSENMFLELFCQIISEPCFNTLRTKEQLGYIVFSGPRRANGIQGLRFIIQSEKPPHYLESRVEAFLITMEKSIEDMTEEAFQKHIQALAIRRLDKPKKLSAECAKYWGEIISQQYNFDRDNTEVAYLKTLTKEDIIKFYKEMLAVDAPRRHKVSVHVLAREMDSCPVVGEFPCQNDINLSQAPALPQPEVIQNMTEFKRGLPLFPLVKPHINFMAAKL
As to the kind of experiment: cellular IDE activation of Abeta substrate cleavage – fluorescence polarization, HEK cells, dose response (AID 588439). The format is functional, cell-based.

The target in assay [6] is T1, Insulin-degrading enzyme. In words: recombinant IDE activation, cell-free – biochemical, fluorescence polarization, counter-screen for IDE activator project, dose response (AID 588681).
Assay [7] has as its target T2, Ubiquitin-conjugating enzyme E2 N (Homo sapiens, UniProt P61088).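 Also: Dose-response confirmation in a TR-FRET assay detecting UBC13-driven polyubiquitin chain formation, inhibition measured.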
T2 sequence (P61088 whole entry): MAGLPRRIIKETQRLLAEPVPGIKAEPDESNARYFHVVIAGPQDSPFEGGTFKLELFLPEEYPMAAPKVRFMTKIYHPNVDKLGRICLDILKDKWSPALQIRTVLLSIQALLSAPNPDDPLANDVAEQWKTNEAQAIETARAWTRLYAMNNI
The class given is functional.

Assay [8] has as its target Mu-type opioid receptor (Homo sapiens, UniProt P35372). As to the kind of experiment: Counterscreen for agonists of heterodimerization of the mu 1 (OPRM1) and delta 1 (OPRD1) opioid receptors: Luminescence-based cell-based high throughput dose response assay to identify agonists of OPRM1 homodimerization. The format is functional.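 Also: U2OS cells expressing OPRM1 and beta-arrestin as split beta-galactosidase partners.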

Chain of Intestinal-type alkaline phosphatase (P24822 whole entry): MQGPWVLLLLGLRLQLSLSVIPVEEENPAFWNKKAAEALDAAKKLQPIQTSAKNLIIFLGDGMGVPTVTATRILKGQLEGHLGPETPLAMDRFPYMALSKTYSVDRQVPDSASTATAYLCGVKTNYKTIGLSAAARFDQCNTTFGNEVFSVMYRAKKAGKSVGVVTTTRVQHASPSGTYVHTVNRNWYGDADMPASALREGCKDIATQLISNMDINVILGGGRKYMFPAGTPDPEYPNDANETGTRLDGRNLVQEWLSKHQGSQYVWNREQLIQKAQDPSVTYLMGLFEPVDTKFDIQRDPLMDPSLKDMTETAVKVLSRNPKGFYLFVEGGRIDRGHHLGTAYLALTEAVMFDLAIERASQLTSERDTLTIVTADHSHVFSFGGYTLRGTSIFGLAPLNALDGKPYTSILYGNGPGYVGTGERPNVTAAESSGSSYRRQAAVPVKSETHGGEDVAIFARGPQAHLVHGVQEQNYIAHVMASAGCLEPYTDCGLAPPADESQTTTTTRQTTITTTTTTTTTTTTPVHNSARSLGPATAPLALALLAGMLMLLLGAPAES
Chain of Mu-type opioid receptor (P35372 whole entry): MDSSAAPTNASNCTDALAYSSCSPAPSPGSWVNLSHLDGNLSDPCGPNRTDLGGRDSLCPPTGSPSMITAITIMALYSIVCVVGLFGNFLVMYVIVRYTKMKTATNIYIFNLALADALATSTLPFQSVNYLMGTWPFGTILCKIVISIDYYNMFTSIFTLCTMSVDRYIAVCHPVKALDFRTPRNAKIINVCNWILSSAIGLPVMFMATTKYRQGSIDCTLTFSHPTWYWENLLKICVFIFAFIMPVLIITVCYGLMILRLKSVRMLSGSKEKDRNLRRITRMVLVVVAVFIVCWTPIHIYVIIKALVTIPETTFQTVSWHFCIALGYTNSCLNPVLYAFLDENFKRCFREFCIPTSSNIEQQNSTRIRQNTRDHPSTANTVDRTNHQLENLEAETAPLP
Chain of 5-hydroxytryptamine receptor 5A (P47898 whole entry): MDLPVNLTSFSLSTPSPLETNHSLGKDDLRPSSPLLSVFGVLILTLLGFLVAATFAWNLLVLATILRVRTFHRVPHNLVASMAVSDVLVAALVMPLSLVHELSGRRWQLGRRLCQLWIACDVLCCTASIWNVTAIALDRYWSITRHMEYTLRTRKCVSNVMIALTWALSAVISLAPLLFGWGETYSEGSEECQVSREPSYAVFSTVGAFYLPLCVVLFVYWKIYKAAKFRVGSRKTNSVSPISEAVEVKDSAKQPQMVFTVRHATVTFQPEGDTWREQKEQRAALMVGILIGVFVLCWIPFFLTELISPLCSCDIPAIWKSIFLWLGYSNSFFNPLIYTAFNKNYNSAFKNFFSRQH
Chain of Small ubiquitin-related modifier 1 (P63165 whole entry): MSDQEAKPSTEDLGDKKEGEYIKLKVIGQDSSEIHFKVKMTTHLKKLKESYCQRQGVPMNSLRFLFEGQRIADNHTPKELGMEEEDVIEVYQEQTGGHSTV

Regarding `Clc1ccc(C(c2ccc(Cl)cc2)n2cc[n+](CC(OCc3ccc(Cl)cc3Cl)c3ccc(Cl)cc3Cl)c2)cc1` (stereo not drawn) [CALMIDAZOLIUM CHLORIDE], the AC50 in assay [1] was 7.07 µM (active). Also, the IC50 in assay [2] was 14.6 µM (active); in assay [3] it was > 66.6 µM (inactive); in assay [7] it was 10.9 µM (active). Also, the EC50 in assay [4] was > 92.5 µM (inactive); in assay [5] it was > 2.03 µM (active); in assay [6], > 54.7 µM (inactive); in assay [8] it was > 92.5 µM (inactive).
